Test results reported in US9139523B2, “5-HT2B receptor antagonists” (Janssen Pharmaceutica, NV, priority 2010, dated 2015).

Experiments:
[1] = molecular target: T1, 5HT1A (Homo sapiens, UniProt P08908); experiment: Competitive radioligand binding, 5HT1A; conditions: HEK293 membranes, 3H-8-OH-DPAT 0.5 nM; read-out: pIC50 5HT1A (converted)
T1 construct: expressed in transfected cells; host or cells: HEK293 (membrane fraction)
T1 sequence (P08908 1-422): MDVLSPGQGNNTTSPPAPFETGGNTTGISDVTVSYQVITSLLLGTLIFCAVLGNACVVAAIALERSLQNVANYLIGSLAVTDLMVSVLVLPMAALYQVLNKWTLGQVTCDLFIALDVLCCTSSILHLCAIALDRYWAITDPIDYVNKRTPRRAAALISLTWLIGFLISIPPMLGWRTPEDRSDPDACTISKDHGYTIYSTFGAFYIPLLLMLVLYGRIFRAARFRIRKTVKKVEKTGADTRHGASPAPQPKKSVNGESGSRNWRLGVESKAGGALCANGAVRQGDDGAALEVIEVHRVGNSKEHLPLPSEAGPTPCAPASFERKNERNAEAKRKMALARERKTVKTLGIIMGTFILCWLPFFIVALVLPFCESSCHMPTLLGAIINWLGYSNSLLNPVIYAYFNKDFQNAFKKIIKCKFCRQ
Method: (§1) Competitive radioligand binding assays were used to determine the affinity of the test compounds for a particular receptor. Various concentrations of the non-labelled test compound were added to the incubation mixture with the membrane fraction, containing the receptor of interest, and a fixed low concentration (nM) of the radioligand. During the incubation the radioligand bound to the receptor, but this was inhibited by the non-labelled test compound in proportion to its binding affinity and concentration.
(§2) Cell lines were established that stably express the human variant of the receptor under investigation after transfection with the appropriate cDNA (Table 1). Transfected cells were grown under standard culture conditions, and membrane fractions were obtained upon centrifugation and homogenisation of the cells. Optimal membrane dilutions for binding studies were determined and aliquots were stored at −70° C. until use. In a 96-well plate format, the appropriate radioligand was added to the membrane preparation containing the receptor under investigation. Compound solutions were prepared in DMSO, and diluted 100-fold into the multiwell plate to a final test concentration of 10^−9 to 10^−5 M. After incubation with the test compound, the unbound radioligand was removed by filtration on G/F filters with a Filtermate 96. Microscint™ was added to the washed filter plates and the radioactivity bound to the receptor was measured by liquid scintillation counting in a TopCount (Packard). To measure the Non-Specific Binding (NSB), a high concentration of the non-radiolabeled ligand was added to wells containing the membrane fraction and the radioligand.
(§3) Using in house developed software, a best-fit curve was fitted by a minimum sum of squares method to the plot of % inhibition vs. concentration of the test compound. From this, the pIC50 value (inhibitory concentration causing 50% displacement of specific binding) was determined, as well as an estimate of the slope of the plot (Hill coefficient).

[2] = molecular target: T2, 5HT3A/B (Homo sapiens, UniProt O95264+P46098); experiment: Competitive radioligand binding, 5HT3A/B; conditions: HEK293 membranes, 3H-GR65630 0.5 nM; read-out: pIC50 5HT3A/B (converted)
T2 construct: expressed in transfected cells; host or cells: HEK293 (membrane fraction)
T2 sequence (P46098 24-478): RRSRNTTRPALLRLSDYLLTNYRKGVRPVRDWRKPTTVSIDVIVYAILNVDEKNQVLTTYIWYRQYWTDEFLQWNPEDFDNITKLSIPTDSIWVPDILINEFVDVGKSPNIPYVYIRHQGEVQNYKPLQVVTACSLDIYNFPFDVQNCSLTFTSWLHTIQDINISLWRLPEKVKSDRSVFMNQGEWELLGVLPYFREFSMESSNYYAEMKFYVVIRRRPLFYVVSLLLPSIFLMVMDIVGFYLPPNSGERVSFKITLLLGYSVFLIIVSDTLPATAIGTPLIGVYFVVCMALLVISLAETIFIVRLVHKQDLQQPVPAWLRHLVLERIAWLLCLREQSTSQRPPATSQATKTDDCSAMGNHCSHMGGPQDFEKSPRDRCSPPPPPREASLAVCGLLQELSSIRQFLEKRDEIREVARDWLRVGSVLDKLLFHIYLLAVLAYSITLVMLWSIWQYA
T2 sequence (O95264 22-441): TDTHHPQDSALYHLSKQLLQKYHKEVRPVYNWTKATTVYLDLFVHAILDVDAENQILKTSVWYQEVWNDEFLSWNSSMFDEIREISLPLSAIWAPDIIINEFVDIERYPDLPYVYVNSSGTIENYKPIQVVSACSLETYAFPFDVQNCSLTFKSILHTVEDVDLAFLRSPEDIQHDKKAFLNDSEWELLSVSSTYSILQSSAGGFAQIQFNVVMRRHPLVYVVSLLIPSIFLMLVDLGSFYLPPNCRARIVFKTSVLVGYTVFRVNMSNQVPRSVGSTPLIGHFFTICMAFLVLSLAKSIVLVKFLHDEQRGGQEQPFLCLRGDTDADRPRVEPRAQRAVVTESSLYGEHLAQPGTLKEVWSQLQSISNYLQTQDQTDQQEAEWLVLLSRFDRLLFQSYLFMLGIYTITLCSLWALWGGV
Method: as §1, §2, §3

[3] = molecular target: T3, Alpha1A (Homo sapiens, UniProt P35348); experiment: Competitive radioligand binding, Alpha1A; conditions: CHO membranes, 3H-prazosin 0.25 nM; read-out: pIC50 Alpha1A (converted)
T3 construct: expressed in transfected cells; host or cells: CHO (membrane fraction)
T3 sequence (P35348 1-466): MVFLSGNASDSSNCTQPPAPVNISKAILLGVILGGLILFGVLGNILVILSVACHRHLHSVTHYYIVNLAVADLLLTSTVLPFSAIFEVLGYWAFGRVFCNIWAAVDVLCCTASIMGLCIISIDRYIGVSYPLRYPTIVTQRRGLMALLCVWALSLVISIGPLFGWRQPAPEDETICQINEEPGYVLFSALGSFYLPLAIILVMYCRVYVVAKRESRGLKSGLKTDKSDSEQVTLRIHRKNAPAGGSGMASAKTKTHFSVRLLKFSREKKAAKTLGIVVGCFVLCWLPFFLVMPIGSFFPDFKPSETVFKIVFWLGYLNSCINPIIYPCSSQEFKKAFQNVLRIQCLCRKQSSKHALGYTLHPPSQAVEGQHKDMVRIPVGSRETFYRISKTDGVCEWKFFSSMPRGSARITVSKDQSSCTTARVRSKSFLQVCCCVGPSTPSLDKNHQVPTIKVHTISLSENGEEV
Method: as §1, §2, §3

[4] = molecular target: T4, D2L (Homo sapiens, UniProt P14416); experiment: Competitive radioligand binding, D2L; conditions: CHO membranes, 3H-spiperone 0.2 nM; read-out: pIC50 D2L (converted)
T4 construct: expressed in transfected cells; host or cells: CHO (membrane fraction)
Method: as §1, §2, §3

[5] = system: anesthetized guinea-pig; experiment: Cardiovascular effects in the anaesthetized guinea-pig; type: in vivo; conditions: guinea pig, 0.02 mg/kg i.v. over 1 min, 15 min after onset of last vehicle infusion
Method: Female guinea-pigs were anesthetized with sodium pentobarbital (66 mg/kg i.p.) followed by a continuous i.v. infusion of 6 mg/h of sodium pentobarbital and prepared for measurements of the surface electrocardiogram (ECG), heart rate and mean arterial blood pressure (see De Clerck et al, Fundam. Clin. Pharm.; 2002; 16: 125-140). Compound (−)-17 was dissolved in 20% hydroxypropyl-cyclodextrin with NaOH, HCl and mannitol in pyrogen-free water and administered intravenously (0.5 ml/kg) in increasing doses (0.16, 0.32, 0.64, 1.25, 2.5 and 5 mg/kg) over a period of 5 min at 15-min intervals. Plasma concentrations of Compound (−)-17 were measured at the end of each infusion. Corresponding volumes of vehicle were administered according to the same protocol in a second group of animals.

T4 sequence (P14416 whole entry): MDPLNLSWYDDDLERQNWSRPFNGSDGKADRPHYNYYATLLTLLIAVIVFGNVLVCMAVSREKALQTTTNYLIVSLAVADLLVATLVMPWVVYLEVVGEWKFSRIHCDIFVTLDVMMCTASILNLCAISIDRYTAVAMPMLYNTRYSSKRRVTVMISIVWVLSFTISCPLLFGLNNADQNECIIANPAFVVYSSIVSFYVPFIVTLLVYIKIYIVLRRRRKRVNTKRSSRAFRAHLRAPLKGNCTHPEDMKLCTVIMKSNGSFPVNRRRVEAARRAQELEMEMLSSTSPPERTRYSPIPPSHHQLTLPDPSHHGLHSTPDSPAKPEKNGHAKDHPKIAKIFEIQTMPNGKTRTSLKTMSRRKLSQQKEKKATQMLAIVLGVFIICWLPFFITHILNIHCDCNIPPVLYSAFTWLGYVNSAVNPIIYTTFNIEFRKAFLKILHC

| IC50 [1] | IC50 [2] | IC50 [3] | IC50 [4] | SMILES | heart rate [5] |
| --- | --- | --- | --- | --- | --- |
| 1950 nM | 1150 nM | 407 nM | 537 nM | COc1cc(N)c(Cl)cc1C(=O)NC1CCN(CCCOc2ccc(F)cc2)CC1OC (centres unmarked) [Cisapride, reference compound] |  |
|  |  |  |  | CN(CCOc1ccc(NS(C)(=O)=O)cc1)CCc1ccc(NS(C)(=O)=O)cc1 [dofetilide, reference compound] | decreased |
